pKi: −log10 of the molar value.
How the values were obtained:
[1] = target: T1, GABAA2 receptors (α2, β3, γ2 receptor subunits transfected into Sf9 cells) (Homo sapiens, UniProt P18507+P47869); experiment: GABAA2 Binding Method ([3H]-Flunitrazepam displacement); conditions: [3H]-Flunitrazepam ~2 nM, α2β3γ2 Sf9 membranes, 1 hr at 4° C.
T1 construct: host or cells: Sf9 cells (membranes)
Summary of the method: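 Displacement of [3H]-flunitrazepam (~2 nM in assay) from recombinant human α2β3γ2 receptors in Sf9 membranes; 1 h incubation at 4 °C, harvest by filtration. Values reported as percent of control, IC50 and Ki.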

GABAA receptor α1β2γ2 = target: T2, GABAA receptor α1β2γ2 (Homo sapiens, UniProt P14867+P18507); experiment: Two-electrode voltage-clamp potentiation of GABA EC10 current in Xenopus oocytes, GABAA1; assay type: cell-based; conditions: percentage potentiation of GABA EC10 current divided by that of diazepam
T2 construct: expressed in transfected cells; host or cells: Xenopus laevis oocytes injected with cRNA
T2 sequence (P14867 28-456): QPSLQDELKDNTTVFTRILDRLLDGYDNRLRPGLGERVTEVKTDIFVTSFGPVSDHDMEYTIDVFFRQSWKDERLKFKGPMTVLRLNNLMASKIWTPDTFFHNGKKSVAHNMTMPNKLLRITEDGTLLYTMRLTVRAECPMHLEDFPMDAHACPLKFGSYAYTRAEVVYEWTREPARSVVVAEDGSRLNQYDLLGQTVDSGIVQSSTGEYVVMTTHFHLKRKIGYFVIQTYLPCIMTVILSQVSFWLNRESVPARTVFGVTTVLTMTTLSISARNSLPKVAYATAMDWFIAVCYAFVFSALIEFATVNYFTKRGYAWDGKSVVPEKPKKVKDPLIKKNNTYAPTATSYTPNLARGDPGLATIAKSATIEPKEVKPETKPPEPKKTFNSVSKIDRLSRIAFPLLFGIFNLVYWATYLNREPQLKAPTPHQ
T2 sequence (P47870 25-512 partner limits assumed): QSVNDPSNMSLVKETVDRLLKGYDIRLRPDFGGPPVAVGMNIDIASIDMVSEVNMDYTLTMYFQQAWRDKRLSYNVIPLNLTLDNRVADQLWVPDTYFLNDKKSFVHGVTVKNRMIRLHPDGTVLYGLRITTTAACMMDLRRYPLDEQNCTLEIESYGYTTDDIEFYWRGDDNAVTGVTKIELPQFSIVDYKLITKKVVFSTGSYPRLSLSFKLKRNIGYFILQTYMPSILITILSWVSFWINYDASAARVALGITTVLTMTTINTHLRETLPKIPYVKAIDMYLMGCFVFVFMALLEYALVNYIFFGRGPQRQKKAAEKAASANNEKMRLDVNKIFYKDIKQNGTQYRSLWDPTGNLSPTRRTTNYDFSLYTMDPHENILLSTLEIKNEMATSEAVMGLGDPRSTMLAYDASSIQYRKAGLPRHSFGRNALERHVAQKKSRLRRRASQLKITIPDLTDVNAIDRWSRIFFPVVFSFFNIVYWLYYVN
T2 sequence (P18507 40-475): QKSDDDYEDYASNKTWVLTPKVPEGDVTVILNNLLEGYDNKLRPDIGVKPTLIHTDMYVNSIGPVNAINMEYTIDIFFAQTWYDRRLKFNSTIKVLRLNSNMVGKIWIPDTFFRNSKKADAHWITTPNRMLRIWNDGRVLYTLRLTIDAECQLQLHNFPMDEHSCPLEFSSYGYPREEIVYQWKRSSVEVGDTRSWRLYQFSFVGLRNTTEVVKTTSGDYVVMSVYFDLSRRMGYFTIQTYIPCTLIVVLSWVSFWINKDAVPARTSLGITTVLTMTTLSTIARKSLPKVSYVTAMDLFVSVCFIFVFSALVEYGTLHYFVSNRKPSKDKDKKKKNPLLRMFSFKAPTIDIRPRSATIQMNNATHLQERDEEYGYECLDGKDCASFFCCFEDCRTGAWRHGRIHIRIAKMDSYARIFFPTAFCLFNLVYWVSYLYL
Summary of the method: (§1)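 Human GABAA receptors expressed in Xenopus oocytes by cRNA injection (α:β:γ molar ratio ~1:1:10 for α1β2γ2, 1:1:1 for α2β3γ2), recorded 2-10 days later by two-electrode voltage clamp at −60 mV in ND-96, pH 7.5. Modulator preapplied 30 s before GABA at per-oocyte EC10. Peak-current percent potentiation over GABA alone, normalised to diazepam.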

GABAA receptor α2β3γ2 = target: T3, GABAA receptor α2β3γ2 (Homo sapiens, UniProt P18507+P47869); experiment: Two-electrode voltage-clamp potentiation of GABA EC10 current in Xenopus oocytes, GABAA2; assay type: cell-based; conditions: percentage potentiation of GABA EC10 current divided by that of diazepam
T3 construct: expressed in transfected cells; host or cells: Xenopus laevis oocytes injected with cRNA
T3 sequence (P47869 29-451): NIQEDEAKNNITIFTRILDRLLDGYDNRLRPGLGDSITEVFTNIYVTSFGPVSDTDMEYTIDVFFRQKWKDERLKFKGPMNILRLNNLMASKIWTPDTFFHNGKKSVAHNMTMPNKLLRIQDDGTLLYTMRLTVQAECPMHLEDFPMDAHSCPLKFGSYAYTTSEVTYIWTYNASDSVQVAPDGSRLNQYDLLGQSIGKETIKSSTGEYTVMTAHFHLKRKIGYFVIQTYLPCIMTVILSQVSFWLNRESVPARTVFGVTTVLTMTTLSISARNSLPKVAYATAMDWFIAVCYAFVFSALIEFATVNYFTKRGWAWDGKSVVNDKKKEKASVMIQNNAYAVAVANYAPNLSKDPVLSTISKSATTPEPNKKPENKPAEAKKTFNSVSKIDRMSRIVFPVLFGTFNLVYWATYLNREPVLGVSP
T3 sequence (P28472 26-473 partner): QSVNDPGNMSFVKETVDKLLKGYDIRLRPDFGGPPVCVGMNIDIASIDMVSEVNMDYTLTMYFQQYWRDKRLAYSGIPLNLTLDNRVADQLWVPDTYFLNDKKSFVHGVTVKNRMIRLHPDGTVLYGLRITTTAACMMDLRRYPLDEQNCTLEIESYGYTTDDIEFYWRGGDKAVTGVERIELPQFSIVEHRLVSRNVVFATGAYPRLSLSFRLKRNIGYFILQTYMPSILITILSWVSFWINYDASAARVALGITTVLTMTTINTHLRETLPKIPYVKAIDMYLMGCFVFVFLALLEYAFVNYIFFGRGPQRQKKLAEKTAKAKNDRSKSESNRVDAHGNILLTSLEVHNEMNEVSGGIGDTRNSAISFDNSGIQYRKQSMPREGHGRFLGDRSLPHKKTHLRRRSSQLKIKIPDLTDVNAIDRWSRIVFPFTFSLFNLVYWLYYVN
T3 sequence (P18507 40-475): as the sequence (P18507 40-475) above
Summary of the method: as §1

[2] = listed as 9-Amino-2-cyclobutyl-5-((P)-2-fluoro-6-methoxyphenyl)-2,3-dihydro-pyrrolo[3,4-b]

T1 sequence (P47869 29-451): as the sequence (P47869 29-451) above
T1 sequence (P28472 26-473 partner): as the sequence (P28472 26-473 partner) above
T1 sequence (P18507 40-475): as the sequence (P18507 40-475) above

Compound | pKi [1] | Relative Potentiation for GABAA1 (GABAA receptor α1β2γ2) | Relative Potentiation for GABAA2 (GABAA receptor α2β3γ2) | Relative Potentiation for GABAA1 (GABAA receptor α1β2γ2; [2]) | Relative Potentiation for GABAA2 (GABAA receptor α2β3γ2; [2])
Nc1c2c(nc3c(-c4cnccn4)cccc13)CN(C1CCC1)C2=O [9-Amino-2-cyclobutyl-5-pyrazin-2-yl-2,3-dihydropyrrolo[3,4-b]quinolin-1-one] | 7.95 | −0.066 | 0.11 | – | –
COc1ccc(OC)c(CN2Cc3nc4c(-c5cnccc5OC)cccc4c(N)c3C2=O)c1 [Example 39, 9-Amino-2-(2,5-dimethoxybenzyl)-5-(4-methoxypyridin-3-yl)-2,3-dihydropyrrolo[3,4-b]quinolin-1-one] | 8.29 | 0.18 | 0.26 | – | –
Nc1c2c(nc3c(-c4ccccc4F)cccc13)CN(C1CC1)C2=O [9-Amino-2-cyclopropyl-5-(2-fluorophenyl)-2,3-dihydropyrrolo[3,4-b]quinolin-1-one] | 7.74 | −0.024 | 0.16 | – | –
N#Cc1cc(F)ccc1-c1cccc2c(N)c3c(nc12)CN(C1CCC1)C3=O [2-(9-Amino-2-cyclobutyl-1-oxo-2,3-dihydro-1H-pyrrolo[3,4-b]quinolin-5-yl)-5-fluorobenzonitrile] | 8.38 | −0.024 | 0.11 | – | –
COc1ccc(-c2cccc3c(N)c4c(nc23)CN([C@H]2C[C@@H](C)C2)C4=O)c(C)n1 | 8.33 | 0.14 | 0.3 | – | –
COc1cccc(Cl)c1-c1cccc2c(N)c3c(nc12)CN(C1CC1)C3=O [9-amino-5-(2-chloro-6-methoxyphenyl)-2-cyclopropyl-2,3-dihydro-1H-pyrrolo[3,4-b]quinolin-1-one] | 7.83 | −0.1 | 0.052 | – | –
COc1ccc(F)c(-c2cccc3c(N)c4c(nc23)CN(C2CC2)C4=O)c1 [Example 60, 9-Amino-2-cyclopropyl-5-(2-fluoro-5-methoxyphenyl)-2,3-dihydropyrrolo[3,4-b]quinolin-1-one] | 7.86 | 0.079 | 0.33 | – | –
CCCN1Cc2nc3c(-c4cc(C)cnc4Cl)cccc3c(N)c2C1=O [9-amino-5-(2-chloro-5-methylpyridin-3-yl)-2-propyl-2,3-dihydro-1H-pyrrolo[3,4-b]quinolin-1-one] | 8.18 | 0.44 | 0.61 | – | –
COc1ncc(-c2c(F)ccc3c(N)c4c(nc23)CN(C2CC2)C4=O)c(OC)n1 [Example 44, 9-Amino-2-cyclopropyl-5-(2,4-dimethoxypyrimidin-5-yl)-6-fluoro-2,3-dihydropyrrolo[3,4-b]quinolin-1-one] | 8.18 | 0.13 | 0.35 | – | –
CCN1Cc2nc3c(-c4cc(F)ccc4OC)c(F)ccc3c(N)c2C1=O [Example 46, 9-Amino-2-ethyl-6-fluoro-5-(5-fluoro-2-methoxyphenyl)-2,3-dihydropyrrolo[3,4-b]quinolin-1-one] | 7.76 | −0.008 | 0.3 | – | –
COc1ccc(CN2Cc3nc4c(-c5c(F)cccc5OC)cccc4c(N)c3C2=O)cc1 [Example 1, 9-Amino-5-(2-fluoro-6-methoxyphenyl)-2-(4-methoxybenzyl)-2,3-dihydropyrrolo[3,4-b]quinolin-1-one] | 8.01 | −0.034 | 0.2 | – | –
N#Cc1cncc(-c2cccc3c(N)c4c(nc23)CN(C2CCC2)C4=O)c1 [5-(9-Amino-2-cyclobutyl-1-oxo-2,3-dihydro-1H-pyrrolo[3,4-b]quinolin-5-yl)-nicotinonitrile] | 8.23 | 0.048 | 0.21 | – | –
COc1ccc(CN2Cc3nc4c(-c5ccc(-c6ccc(Cl)nc6)nc5)cccc4c(N)c3C2=O)cc1OC [9-amino-5-(6′-chloro-2,3′-bipyridin-5-yl)-2-(3,4-dimethoxybenzyl)-2,3-dihydro-1H-pyrrolo[3,4-b]quinolin-1-one] | 7.69 | −0.048 | 0.023 | – | –
COc1ncc(-c2cccc3c(N)c4c(nc23)CN(C2CCC2)C4=O)cc1C [9-Amino-2-cyclobutyl-5-(6-methoxy-5-methylpyridin-3-yl)-2,3-dihydropyrrolo[3,4-b]quinolin-1-one] | 8.34 | 0.029 | 0.16 | – | –

The next compounds have a higher pKi [1] than those just listed; values first:

pKi [1] | Relative Potentiation for GABAA1 (GABAA receptor α1β2γ2) | Relative Potentiation for GABAA2 (GABAA receptor α2β3γ2) | Relative Potentiation for GABAA1 (GABAA receptor α1β2γ2; [2]) | Relative Potentiation for GABAA2 (GABAA receptor α2β3γ2; [2]) | Compound
8.59 | −0.002 | 0.24 | – | – | Nc1c2c(nc3c(-c4cccnc4F)cccc13)CN(C1CCC1)C2=O [9-Amino-2-cyclobutyl-5-(2-fluoropyridin-3-yl)-2,3-dihydropyrrolo[3,4-b]quinolin-1-one]
9.20 | 0.083 | 0.52 | – | – | COc1ncncc1-c1cccc2c(N)c3c(nc12)CN(C1CCC1)C3=O [9-Amino-2-cyclobutyl-5-(4-methoxy-pyrimidin-5-yl)-2,3-dihydropyrrolo[3,4-b]quinolin-1-one]
9.48 | 0.11 | 0.26 | – | – | COc1ccc(F)cc1-c1c(F)ccc2c(N)c3c(nc12)CN(C1CCC1)C3=O [9-Amino-2-cyclobutyl-6-fluoro-5-(5-fluoro-2-methoxyphenyl)-2,3-dihydropyrrolo[3,4-b]quinolin-1-one]
8.57 | 0.032 | 0.13 | – | – | COc1cccc(-c2c(F)ccc3c(N)c4c(nc23)CN(C2CC2)C4=O)c1F [9-Amino-2-cyclopropyl-6-fluoro-5-(2-fluoro-3-methoxyphenyl)-2,3-dihydropyrrolo[3,4-b]quinolin-1-one]
8.44 | 0.58 | 0 | – | – | CCCN1Cc2nc3c(-c4cc(C)cnc4OC)cccc3c(N)c2C1=O [9-amino-5-(2-methoxy-5-methylpyridin-3-yl)-2-propyl-2,3-dihydro-1H-pyrrolo[3,4-b]quinolin-1-one]
8.73 | 0.038 | 0.26 | – | – | COc1cncc(-c2cccc3c(N)c4c(nc23)CN(C2CCC2)C4=O)c1 [9-Amino-2-cyclobutyl-5-(5-methoxy-pyridin-3-yl)-2,3-dihydropyrrolo[3,4-b]quinolin-1-one]
9.60 | 0.044 | 0.23 | – | – | COc1ccc(-c2c(F)ccc3c(N)c4c(nc23)CN(C2CCC2)C4=O)c(OC)c1 [Example 100, 9-Amino-2-cyclobutyl-5-(2,4-dimethoxyphenyl)-6-fluoro-2,3-dihydropyrrolo[3,4-b]quinolin-1-one]
9.54 | – | – | −0.11 | 0.23 | COc1cccc(F)c1-c1cccc2c(N)c3c(nc12)CN(C1CCC1)C3=O (single isomer, unassigned) [Example 129, 9-Amino-2-cyclobutyl-5-((P)-2-fluoro-6-methoxyphenyl)-2,3-dihydropyrrolo[3,4-b]quinolin-1-one]
9.02 | −0.016 | 0.14 | – | – | Nc1c2c(nc3c(-c4ccccc4F)cccc13)CN(C1CCC1)C2=O [Example 124, 9-Amino-2-cyclobutyl-5-(2-fluorophenyl)-2,3-dihydropyrrolo[3,4-b]quinolin-1-one]
8.43 | 0.02 | 0.2 | – | – | COc1ccccc1-c1c(F)ccc2c(N)c3c(nc12)CN(C1CC1)C3=O [9-Amino-2-cyclopropyl-6-fluoro-5-(2-methoxyphenyl)-2,3-dihydropyrrolo[3,4-b]quinolin-1-one]
8.85 | 0.005 | 0.17 | – | – | CCN1Cc2nc3c(-c4cc(OC)ccc4F)c(F)ccc3c(N)c2C1=O [9-Amino-2-ethyl-6-fluoro-5-(2-fluoro-5-methoxyphenyl)-2,3-dihydropyrrolo[3,4-b]quinolin-1-one]

From US20080318943A1, “Compounds and Uses Thereof - 848” (ASTRAZENECA AB, priority 2007, published 2008)
